In patent US8906896B2, “Platinum acridine anti-cancer compounds and methods thereof” (priority 2008, dated 2014):

Columns and labels:
[1] = H460 xenograft study in nude mice; assay type: in vivo; settings: female, athymic nude, mouse, in vivo, ip, q4d×3, mice; dose B stated to be close to the MTD; read-out: maximum tolerated dose (MTD)
Method: (§1) Xenograft Study. H460 xenografts were established in nude athymic female mice via bilateral subcutaneous injections. Treatment began when the average tumor volume was approximately 100 mm^3. The tumor-bearing mice were randomized depending on tumor volume into three groups of five test animals each: one control group receiving vehicle only, one group treated at 0.1 mg/kg 5d/w×2 (A), and one group treated at 0.5 mg/kg q4d×3 (B). Animal weights and tumor volumes were measured and recorded for 17 days after the first dose was administered. Tumor volumes were determined using the formula:V (mm^3)=d^2×D/2, where d and D are the shortest and longest dimension of the tumor, respectively, and are reported as the sum of both tumors for each test animal. At the end of the study, all animals were euthanized and disposed of according to Standard Operating Procedures (SOPs). Statistical analysis of the growth curves was done using a non-linear polynomial random-coefficient model in SAS Proc Mixed (SAS Institute Inc., Cary, N.C.).
(§2) The antitumor activity of compound 14b was evaluated against H460 bilateral tumors implanted into athymic nude mice. […] Complex 14b was administered intraperitonealy (i.p.) according to the following dosing schedules: (A) 0.1 mg/kg, five days per week for two consecutive weeks (5d/w×2), and (B) 0.5 mg/kg, three doses given at 4-day intervals (q4d×3). The tumor volumes recorded in both treatment groups and in untreated control animals are plotted vs. days of treatment in FIG. 1. At the end of the study, the tumors measured 1834±160, 1798±309, and 1102±319 mm^3 (means±S.E.M.) for the control animals and animals treated according to schedules A and B, respectively.
(§3) Growth curves are shown for untreated control animals (open squares), and mice treated according to schedule A (filled triangles) and schedule B (filled circles). Measurement of tumor volumes began on day 0, and treatment began on day 4. Each data point represents the mean of 5 tumor volumes±S.E.M.

[2] = test system: H460 NSCLC tumors xenografted into nude mice; assay: H460 xenograft study in nude mice; assay type: in vivo
Method: as §1, §2, §3

[3] = test system: NCI-H460 NSCLC cell line; assay: Cytotoxicity (cell proliferation) assay, NCI-H460; assay type: cell-based
Method: Cytotoxicity Assay. Cytotoxicity studies were carried out according to a standard protocol (Guddneppanavar et al. 2006) using the Celltiter 96 Aqueous Non-Radioactive Cell Proliferation Assay kit (Promega, Madison, Wis.). […] IC50 values were calculated from non-linear curve fits using a sigmoidal dose-response equation in GraphPad Prism (GraphPad Software, La Jolla, Calif.).

[4] = test system: NCI-H460 NSCLC cell line; settings: typical values; cited from earlier work

Compound	MTD at 17 days [1]	tolerated dose relative to cisplatin ([2]; administered i.p.)	effect on tumor growth ([2]; schedule A: 0.1 mg/kg i.p. 5d/w×2)	effect on tumor growth rate compared to control group ([2]; schedule B: 0.5 mg/kg i.p. q4d×3, P<0.01)	potency in H460 cells relative to the compounds of the invention (fold less potent) [3]	IC50 in H460 cells (typical) [4]
CC/C(=[N]\[Pt]([NH2])([NH2])[Cl])N(C)CCNc1c2ccccc2nc2ccccc12 [Compound 14b]	~0.5 mg/kg	an order of magnitude lower than those commonly applied for cisplatin	no effect on tumor growth	slowed the tumor growth rate significantly	–	–
N.N.[Cl][Pt][Cl] [Cisplatin, cis-diamminedichloroplatinum]	–	–	–	–	at least 20 fold	micromolar range
